Laboratory results as given in ChEMBL document CHEMBL1148610, “Novel potential anticancer naphthyl phosphoramidates of BVdU: separation of diastereoisomers and assignment of the absolute configuration of the phosphorus center” (J Med Chem, 2006).

How the values were obtained:
Assay type in all cases: functional, cell-based
MDA-MB-231 = experiment: Cytostatic activity against human breast cancer MDA-MB-231 cell line
PC-3 = experiment: Cytostatic activity against human prostate cancer PC3 cell line
T-24 = experiment: Cytostatic activity against human bladder cancer T24 cell line

| Structure (SMILES) | EC50 (MDA-MB-231) [µM] | EC50 (PC-3) [µM] | EC50 (T-24) [µM] |
| --- | --- | --- | --- |
| CCC(C)[C@H](NP(=O)(OC[C@H]1O[C@@H](n2cc(/C=C/Br)c(=O)[nH]c2=O)C[C@@H]1O)Oc1cccc2ccccc12)C(=O)OC (stereo partly specified) | 1.5 | 6.9 |  |
| CCC(C)[C@H](NP(=O)(OC[C@H]1O[C@@H](n2cc(/C=C/Br)c(=O)[nH]c2=O)C[C@@H]1O)Oc1cccc2ccccc12)C(=O)OCc1ccccc1 (stereo partly specified) | 130 | 1.4 |  |
| C[C@@H](NP(=O)(OCC1OC(n2cc(/C=C/Br)c(=O)[nH]c2=O)CC1O)Oc1cccc2ccccc12)C(=O)OCc1ccccc1 (stereo partly specified) | 6.3 | 6.1 | 2.8 |
| O=C(OCc1ccccc1)[C@H](Cc1ccccc1)NP(=O)(OCC1OC(n2cc(/C=C/Br)c(=O)[nH]c2=O)CC1O)Oc1cccc2ccccc12 (stereo partly specified) | 1.96 | 5.8 | 269 |
| COC(=O)[C@H](Cc1ccccc1)NP(=O)(OCC1OC(n2cc(/C=C/Br)c(=O)[nH]c2=O)CC1O)Oc1cccc2ccccc12 (stereo partly specified) | 8.5 | 10.2 | 5.3 |
| COC(=O)[C@H](C(C)C)P(=O)(OCC1OC(n2cc(/C=C/Br)c(=O)[nH]c2=O)CC1O)Oc1cccc2ccccc12 (stereo partly specified) | 14.8 | 15.8 | 43.5 |
| C[C@H](NP(=O)(O)Oc1cccc2ccccc12)C(=O)OCc1ccccc1 | 15.2 | 1.7 |  |
| CC(C)(NP(=O)(OC[C@H]1O[C@@H](n2cc(/C=C/Br)c(=O)[nH]c2=O)C[C@@H]1O)Oc1cccc2ccccc12)C(=O)OCc1ccccc1 (stereo partly specified) | 2.7 | 1.5 |  |
| COC(=O)C(C)(C)NP(=O)(OC[C@H]1O[C@@H](n2cc(/C=C/Br)c(=O)[nH]c2=O)C[C@@H]1O)Oc1cccc2ccccc12 (stereo partly specified) | 0.32 | 65.9 |  |
| COC(=O)[C@@H](NP(=O)(OCC1OC(n2cc(/C=C/Br)c(=O)[nH]c2=O)CC1O)Oc1cccc2ccccc12)c1ccccc1 (stereo partly specified) | 105 | 1.7 |  |
| CC(C)[C@H](NP(=O)(OCC1OC(n2cc(/C=C/Br)c(=O)[nH]c2=O)CC1O)Oc1cccc2ccccc12)C(=O)OCc1ccccc1 (stereo partly specified) | 5.9 | 8.3 | 12.7 |
| COC(=O)[C@H](CCSC)NP(=O)(OCC1OC(n2cc(/C=C/Br)c(=O)[nH]c2=O)CC1O)Oc1cccc2ccccc12 (stereo partly specified) | 28.1 | 44.6 | 19.6 |
| COC(=O)[C@@H]1CCCN1P(=O)(OCC1OC(n2cc(/C=C/Br)c(=O)[nH]c2=O)CC1O)Oc1cccc2ccccc12 (stereo partly specified) | 6.5 | 10.5 | 0.4 |
| C[C@H](NP(=O)(OCC1OC(n2cc(/C=C/Br)c(=O)[nH]c2=O)CC1O)Oc1cccc2ccccc12)C(=O)OC(C)(C)C (stereo partly specified) | 4.8 | 11 | 4 |
